Source: patent US20210029995A1, “Use of Volatile Organic Compounds as Pesticides” (Certis Europe B.V., priority 2018, published 2021)
Counter-ions that a name gives are not always drawn.

Key:
[1] = system: H. bacteriophora; conditions: 20 μl VOC, checked after 24 hr, sealed Petri dish
Protocol: (§1) Authenticated M. brunneum VOCs, along with other selected VOCs, were screened for nematicidal activity against S. feltiae and H. bacteriophora. […] Each Petri dish (90 mm) contained 20 ml of the water agar medium. The inoculated plates were kept in darkness for 3 hr at room temperature to acclimatize. The plates were then exposed to 20 μl of the VOC dispensed from a 8 mm paper disc (Whatman™, 0.34 mm thickness) positioned on a 25×25 mm glass coverslip placed in the centre of the Petri dish lid (FIG. 1A). The plates were sealed with a double layer of Parafilm and were kept in the dark at 21° C. and checked after 24 hr. The number of live and dead nematodes were counted with the aid of a stereo binocular microscope (30×).
(§2) The deposition was predetermined using bacterial cultures highly sensitive to these VOCs. The edge of the circular zone of inhibition delineated the area of activity.
(§3) Mean of mortality was calculated from the total number of alive and dead individuals across all circles. There were five replicates per treatment and the whole experiment was repeated twice.

[2] = system: S. feltiae; conditions: 20 μl VOC, checked after 24 hr, sealed Petri dish
Protocol: as §1, §2, §3

[3] = system: S. carpocapsae; assay: Dose mortality assay for the EPNs (Example 2); format: in vivo, Steinernema carpocapsae; conditions: for mortality: after 24 hr
Protocol: (§4) All statistical analyses were carried out using RStudio statistics package (RStudio, Inc. version 1.0.153), using “MASS” and “multcomp” packages. For all mortality data, differential sensitivity between EPN species and/or insect species and differential compound potency were determined using a generalised linear model (GLM) and Tukey's range test in post-hoc analysis. LD50 values were calculated using a GLM and the “dose.p” function within the “MASS” package. An ANOVA was carried out on the chemotactic responses of EPNs to VOCs, with the strength of response compared at each time and concentration. Welch's t-tests were used to compare means of mortality results in the final EPNs efficacy assay.
(§5) Dose mortality assays were performed using 3-octanone and 1-octen-3-ol. The assays were performed as described in Example 1, except that the EPNs (S. carpocapsae (Sc), S. feltiae (Sf) and H. bacteriophora (Hb)) were exposed to different doses of the VOCs (5, 10, 15 and 20 μl). The mortality was recorded as described previously at 3, 6, 12 and 24 hr post treatment. Controls included EPNs only (no VOC) and EPNs+1-octene. The results are shown in FIG. 2 (results 3 hr post treatment), 3 (results 6 hr post treatment), 4 (results 12 hr post treatment) & 5 (results 24 hr post treatment).

[4] = system: S. feltiae; assay: Dose mortality assay for the EPNs (Example 2); format: in vivo, Steinernema feltiae
Protocol: as §4, §5

[5] = system: H. bacteriophora; assay: Dose mortality assay for the EPNs (Example 2); format: in vivo, Heterorhabditis bacteriophora
Protocol: as §4, §5

[6] = system: S. carpocapsae, S. feltiae and H. bacteriophora; assay: Dose mortality assay, statement for all three EPNs; format: in vivo; conditions: for mortality: all three EPNs, after 24 hr
Protocol: (§6) Authenticated M. brunneum VOCs, along with other selected VOCs, were screened for nematicidal activity against S. feltiae and H. bacteriophora. 750 μl of nematode suspension containing approximately 5000 Us in tap water, was spread uniformly over the water agar surface (2.6% w/v agar, 5 mM potassium phosphate pH 6, 1 mM CaCl2 and 1 mM MgSO4) of a Petri dish. Each Petri dish (90 mm) contained 20 ml of the water agar medium. The inoculated plates were kept in darkness for 3 hr at room temperature to acclimatize. The plates were then exposed to 20 μl of the VOC dispensed from a 8 mm paper disc (Whatman™, 0.34 mm thickness) positioned on a 25×25 mm glass coverslip placed in the centre of the Petri dish lid (FIG. 1A). The plates were sealed with a double layer of Parafilm and were kept in the dark at 21° C. and checked after 24 hr. The number of live and dead nematodes were counted with the aid of a stereo binocular microscope (30×).
as §5, with “EPNs+1-octene.” for “EPNs+1-octene. The results are shown in FIG. 2 (results 3 hr post treatment), 3 (results 6 hr post treatment), 4 (results 12 hr post treatment) & 5 (results 24 hr post treatment).”

[7] = system: root knot nematode M. hapla; conditions: for nematicidal activity against M. hapla: 5 μl and 10 μl
Protocol: as §6
A study was conducted to determine the susceptibility of the root knot nematode M. hapla, a major crop pest, to 3-octanone and 1-octen-3-ol. Single egg-mass populations of M. hapla were kindly provided by Dr Ivan Grove (Harper Adams University/Crop and Environment Sciences). Four-week-old tomato plants (Solanum lycopersicum cv. Rutgers) were grown in a greenhouse. Soil in each pot was infested by pipetting egg masses of M. hapla suspended in tap water and cultivated at approximately 25±2° C. in a greenhouse. Six months following inoculation, tomato plants were uprooted and root systems were carefully washed with running tap water to remove adhered soil. The roots were cut into small pieces and extracted by the Baermann funnel method for 3-5 days to obtain live nematodes. The inoculum concentration included a range of life stages and was adjusted to approximately 2000 individuals using tap water by the aid of a haemocytometer. A mortality assay was carried out as described in Examples 1 and 2 above. The assay was carried out at two doses of the VOCs (5 μl and 10 μl) and the mortality was recorded at 3, 6 and 24 hr post treatment. There were three replicates per treatment and the whole experiment was repeated twice.

Molecule	Mortality (%) (Mean ± SE) H. bacteriophora (Hb) [1]	Mortality (%) (Mean ± SE) S. feltiae (Sf) [2]	further results
C=CC(O)CCCCC (centres unmarked) [1-octen-3-ol]	91.6±2.1	100	LD50 ([3]; 24 hr): 41.01 µL; LD50 ([4]; 6 hr): 10.56 µL; LD50 ([5]; 6 hr): 21.72 µL; mortality [6]: very high; nematicidal activity against M. hapla [7]: strong nematicidal activity; mortality response ([7]; M. hapla, after 3 hr and 6 hr, 5 and 10 μl): dose dependent response; dead nematodes ([7]; M. hapla, after 24 hr, both doses (5 μl and 10 μl)): over 90%
C=CCCCCCC [1-octene, reference compound]	19.4 ± 3.8	20.1 ± 3	mortality [3]: ≤ 50%; mortality ([4]; after 24 hr): ≤ 50%; mortalities ([6]; EPNs, over time (3-24 hr)): extremely low
CC(O)C(C)O (centres unmarked) [2,3-Butanediol]	11.4 ± 2.3	12.5 ± 7.2	
CCCCCC(=O)CC [3-octanone]	100	100	LD50 ([3]; 12 hr): 94.88 µL; mortality ([3]; all doses (5-20 μl)): all nematodes were dead at all doses; mortality ([4]; at all time points (3, 6, 12, 24 hr)): > 99%; LD50 (μl) ([4]; no LD50 calculated): a (>99% mortality from 3 hr); LD50 ([5]; 3 hr): 5.68 µL; mortality ([5]; time points later than 3 hr): exceeded 90%; mortality [6]: very high; nematicidal activity against M. hapla [7]: strong nematicidal activity; mortality ([7]; in vivo): 100%
C=C(C)[C@H]1CC=C(C)CC1 [(R)-(+)-Limonene]	5.9 ± 1.9	16.7 ± 3.2	
CC(C)CCO [Isoamyl alcohol]	9.7 ± 2.1	20.8 ± 3	
CC(C)CCOC=O [Isoamyl formate]	46.6±1.8	58	
COC(=O)CC(C)C [Methyl isovalerate]	55 ± 2.6	38.1 ± 7	
CCCCCCCCCCCCC [Tridecane]	4.1 ± 1.6	32.3 ± 5	
CCCCCCCCCCC [Undecane]	7.5 ± 2.7	25.4 ± 5.6	
Farnesene	7.8 ± 3.1	43 ± 1.1	
